This note sets out measurements from patent US7265103B2, “Substituted amino isoxazoline derivatives and their use as anti-depressants” (Janssen Pharmaceutica NV., priority 2002, dated 2007).

Counter-ions that a name gives are not always drawn.

For data set [1], the target named is T1, hα2A receptor (Homo sapiens, UniProt P08913).
T1 construct: expressed in transfected cells; host or cells: CHO cells
T1 sequence (P08913 1-465): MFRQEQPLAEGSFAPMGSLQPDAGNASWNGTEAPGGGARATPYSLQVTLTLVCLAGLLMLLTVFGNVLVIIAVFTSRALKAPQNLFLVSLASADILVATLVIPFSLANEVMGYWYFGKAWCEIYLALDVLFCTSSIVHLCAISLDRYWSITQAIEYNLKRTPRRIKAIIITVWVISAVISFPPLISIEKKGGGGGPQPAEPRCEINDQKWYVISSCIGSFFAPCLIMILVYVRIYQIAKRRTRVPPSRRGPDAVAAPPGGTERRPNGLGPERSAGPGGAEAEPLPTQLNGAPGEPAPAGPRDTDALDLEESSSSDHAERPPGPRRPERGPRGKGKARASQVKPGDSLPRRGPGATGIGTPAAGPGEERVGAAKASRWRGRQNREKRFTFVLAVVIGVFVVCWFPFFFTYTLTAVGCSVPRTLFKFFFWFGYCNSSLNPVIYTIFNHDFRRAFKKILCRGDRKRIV
As to the kind of experiment: Radioligand binding experiment for α2A-adrenergic receptor ([3H]-raulwolscine). The settings on record: CHO cell membranes with human α2A receptor, [3H]raulwolscine 1 nM; read-out: pIC50 α2A (converted). In a few lines:
(§1)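 Membranes from CHO cells stably expressing human α2A or α2C receptors (sodium butyrate-induced) incubated with 1 nM [3H]raulwolscine in 25 mM glycylglycine pH 8.0 for 60 min at 25° C, then filtered. Non-specific binding defined with 1 μM oxymetazoline (α2A) or 1 μM spiroxatrine (α2C); pIC50 from sigmoidal competition curves.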

The target of data set [2] is T2, h5-HT transporter (Homo sapiens, UniProt P31645).
T2 construct: Human platelet membranes (Oceanix Biosciences Corporation, Hanover, Md., USA) were thawed; tissue Oceanix Biosciences Corporation; host or cells: human platelet membranes
Kind of data set: Radioligand binding experiment for 5-HT transporter ([3H]paroxetine). The note with it: human platelet membranes, [3H]paroxetine 0.5 nM. In a few lines:
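Competition binding on human platelet membranes (50-100 μg protein) in 50 mM Tris-HCl, 120 mM NaCl, 5 mM KCl with 0.5 nM [3H]paroxetine, 60 min at 25 °C, filtration and scintillation counting. Non-specific binding defined with 1 μM imipramine; pIC50 from nonlinear sigmoidal fits of percent total binding.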

The target in data set [3] is T3, hα2C receptor (Homo sapiens, UniProt P18825).
T3 construct: expressed in transfected cells; host or cells: CHO cells
T3 sequence (P18825 1-462): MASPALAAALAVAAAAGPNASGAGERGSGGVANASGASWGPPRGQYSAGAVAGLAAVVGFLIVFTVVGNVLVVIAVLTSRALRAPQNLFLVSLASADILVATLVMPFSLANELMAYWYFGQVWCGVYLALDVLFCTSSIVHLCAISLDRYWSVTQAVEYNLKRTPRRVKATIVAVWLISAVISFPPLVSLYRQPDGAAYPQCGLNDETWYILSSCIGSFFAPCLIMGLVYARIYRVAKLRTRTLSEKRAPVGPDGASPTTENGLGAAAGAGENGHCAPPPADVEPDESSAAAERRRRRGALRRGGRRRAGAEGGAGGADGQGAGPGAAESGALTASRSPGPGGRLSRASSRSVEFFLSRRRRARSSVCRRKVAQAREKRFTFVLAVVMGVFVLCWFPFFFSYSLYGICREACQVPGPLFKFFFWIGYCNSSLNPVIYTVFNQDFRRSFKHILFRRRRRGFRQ
As to the kind of experiment: Radioligand binding experiment for α2C-adrenergic receptor ([3H]-raulwolscine). The note with it: CHO cell membranes with human α2C receptor, [3H]raulwolscine 1 nM; read-out: pIC50 α2C (converted). In a few lines:
as §1

T2 sequence (P31645 whole entry): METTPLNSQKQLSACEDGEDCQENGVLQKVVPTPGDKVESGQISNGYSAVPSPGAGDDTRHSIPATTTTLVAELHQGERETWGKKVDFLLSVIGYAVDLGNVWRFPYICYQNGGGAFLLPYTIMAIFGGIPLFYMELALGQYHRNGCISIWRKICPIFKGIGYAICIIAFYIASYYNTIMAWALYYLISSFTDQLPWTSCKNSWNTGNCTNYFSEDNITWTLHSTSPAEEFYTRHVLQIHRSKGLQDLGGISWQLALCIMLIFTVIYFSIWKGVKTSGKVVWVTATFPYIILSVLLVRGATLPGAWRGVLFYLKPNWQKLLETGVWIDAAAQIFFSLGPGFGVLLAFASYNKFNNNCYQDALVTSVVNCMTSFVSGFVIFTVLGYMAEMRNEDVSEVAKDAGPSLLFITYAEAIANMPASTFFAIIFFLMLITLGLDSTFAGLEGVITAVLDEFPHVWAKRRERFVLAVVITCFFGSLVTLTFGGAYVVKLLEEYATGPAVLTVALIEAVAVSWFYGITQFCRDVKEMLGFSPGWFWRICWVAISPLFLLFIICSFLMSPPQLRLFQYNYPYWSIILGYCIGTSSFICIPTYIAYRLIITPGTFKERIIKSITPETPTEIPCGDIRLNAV

One may read the melting point as the temperature, or range, at which the solid turns liquid. Turning to `CC(=Cc1ccccc1)CN1CCN(CC2ON=C3c4ccc(NC(=O)C(C)(C)C)cc4OCC32)CC1` (stereo not shown) [Compound 50], the melting point is 183.4 to 190.2 °C. Further, the IC50 in data set [1] is 3.16 nM. The IC50 in data set [2] was 15.8 nM. Also, the IC50 in data set [3] was 1 nM.

In the case of `CC(=Cc1ccccc1)CN1CCN(CC2ON=C3c4ccc(Nc5ccc(F)cc5)cc4OCC32)CC1` (stereo not shown) [Compound 42], the melting point fell in the range of 130.8 to 134.1 °C. Besides, the IC50 in data set [1] is 31.6 nM. In data set [2], the IC50 was 126 nM. Further, the IC50 in data set [3] is 15.8 nM.

Take `CNCCN(C)c1ccc2c(c1)OCC1C2=NOC1CN1CCN(CC(C)=Cc2ccc(F)cc2)CC1` (stereo not shown) [Compound 21]: the melting point was 98.4 to 105.3 °C. Also, the IC50 in data set [1] is 7.94 nM. The compound further showed an IC50 in data set [2] of 3.98 nM. Moreover, in data set [3], the IC50 is 2 nM.

On to `C/C(=C\CN1CCN(CC2ON=C3c4cc5c(cc4OCC32)NCCO5)CC1)c1ccccc1` (stereo not shown) [Compound 91], for which the melting point lay within 130.4 to 146.4 °C. Also, the IC50 in data set [1] is 6.31 nM. In data set [2], this compound showed an IC50 of 31.6 nM. For the same compound, in data set [3], the IC50 is 1.58 nM.

As to `C/C(=C\c1ccc(F)cc1)CN1CCN(CC2ON=C3c4cc5c(cc4OCC32)NCCO5)CC1` (stereo not shown) [Compound 90], the melting point was 160.6 to 172.2 °C. In data set [1], the IC50 was 15.8 nM. Further, in data set [2], the IC50 is 15.8 nM. For the same compound, the IC50 in data set [3] was 1.58 nM.

The compound `CC(=Cc1ccccc1)CN1CCN(CC2ON=C3c4ccc(Nc5ccccc5C)cc4OCC32)CC1` (stereo not shown) [Compound 45] registered a melting point of 133.3 to 148.9 °C. Moreover, the IC50 in data set [1] was 20 nM. For the same compound, the IC50 in data set [2] is 79.4 nM. Moreover, the IC50 in data set [3] was 20 nM.

Regarding `C/C(=C\c1ccc(F)cc1)CN1CCN(CC2ON=C3c4ccc(NS(=O)(=O)c5ccc(C)cc5)cc4OCC32)CC1` (stereo not shown) [Compound 3], the melting point lay within 177 to 194.1 °C. The IC50 in data set [1] was 79.4 nM. Moreover, in data set [2], the IC50 was 39.8 nM. The IC50 in data set [3] is 31.6 nM.

The compound `CC(=Cc1ccccc1)CN1CCN(CC2ON=C3c4ccc(N(C)c5ccccc5)cc4OCC32)CC1` (stereo not shown) [Compound 41] displayed a melting point of 125.9 to 139.7 °C. In data set [1], the IC50 was 25.1 nM. In data set [2], this compound had an IC50 of 158 nM. For the same compound, the IC50 in data set [3] was 25.1 nM.

As for `C/C(=C\c1ccccc1)CN1CCN(CC2ON=C3c4ccc(NCc5ccccc5)cc4OCC32)CC1` (stereo not shown) [Compound 2], the melting point was in the range of 108.9 to 114.7 °C. The IC50 in data set [1] is 15.8 nM. Also, in data set [2], the IC50 is 31.6 nM.

`CC(=Cc1ccccc1)CN1CCN(CC2ON=C3c4ccc(NC(=O)Nc5cccc(F)c5)cc4OCC32)CC1` (stereo not shown) [Compound 65] had a melting point of 186.8 to 188.5 °C. Besides, the IC50 in data set [1] was 79.4 nM. Also, the IC50 in data set [2] was 1580 nM. In addition, the IC50 in data set [3] is 31.6 nM.

Regarding `CNCCNc1ccc2c(c1)OCC1C2=NOC1CN1CCN(CC(C)=Cc2ccc(F)cc2)CC1` (stereo not shown) (as salt: HCl) [Compound 20], the melting point was in the range of 199 to 235.5 °C.

On to `CC(=Cc1ccc(F)cc1)CN1CCN(CC2ON=C3c4ccc(N5CCN(CC=Cc6ccccc6)CC5)cc4OCC32)CC1` (stereo not shown) [Compound 81], for which the melting point was in the range of 154.9 to 160.4 °C. Moreover, the IC50 in data set [1] is 126 nM. The same compound showed an IC50 in data set [2] of 63.1 nM. In addition, in data set [3], the IC50 is 20 nM.

`CC(=Cc1ccc(F)cc1)CN1CCN(CC2ON=C3c4ccc(N5CCCC5)cc4OCC32)CC1` (stereo not shown) [Compound 70] showed a melting point of 194.7 to 204.9 °C. For the same compound, in data set [1], the IC50 is 12.6 nM. For the same compound, the IC50 in data set [2] was 100 nM. In addition, in data set [3], the IC50 was 7.94 nM.

`COc1cc2c(cc1NCCN1CCCC1)OCC1C2=NOC1CN1CCN(CC(C)=Cc2ccccc2)CC1` (stereo not shown) [Compound 26] registered a melting point of 120.4 to 123 °C. In addition, the IC50 in data set [1] was 5.01 nM. The IC50 in data set [2] is 3.16 nM. The IC50 in data set [3] is less than 1 nM.

`CC(=Cc1ccccc1)CN1CCN(CC2ON=C3c4ccc(Nc5cccc(C#N)c5)cc4OCC32)CC1` (stereo not shown) [Compound 44] returned a melting point of 152.7 to 162.6 °C. Moreover, the IC50 in data set [1] was 15.8 nM. The compound also gave an IC50 in data set [2] of 15.8 nM. In addition, the IC50 in data set [3] was 20 nM.

`C/C(=C\c1ccccc1)CN1CCN(CC2ON=C3c4ccc(N)cc4OCC32)CC1` (stereo not shown) [Compound 5] gave a melting point of 134.1 to 136.2 °C. Moreover, the IC50 in data set [1] is 2.51 nM. This compound had an IC50 in data set [2] of 100 nM. Also, in data set [3], the IC50 was 3.98 nM.

For the compound `CC(=Cc1ccc(F)cc1)CN1CCN(CC2ON=C3c4ccc(N(C)CCN)cc4OCC32)CC1` (stereo not shown) (as salt: HCl) [Compound 19], the melting point lay within 218 to 226 °C.

On to `COc1cc2c(cc1N1CCC1=O)OCC1C2=NOC1CN1CCN(CC(C)=Cc2ccc(F)cc2)CC1` (stereo not shown) [Compound 107], for which the IC50 was 7.94 nM in data set [1], 50.1 nM in data set [2] and 10 nM in data set [3].

For the compound `COc1cc2c(cc1NC(C)=O)OCC1C2=NOC1CN1CCN(CC(C)=Cc2cccc(F)c2)CC1` (stereo not shown) [Compound 49], the IC50 is 1.26 nM in data set [1], 7.94 nM in data set [2] and 0.251 nM in data set [3].

As for `COc1cc2c(cc1NC(=O)Nc1ccccc1)OCC1C2=NOC1CN1CCN(CC(C)=Cc2ccc(F)cc2)CC1` (stereo not shown) [Compound 124], the results for the IC50 in data set [1], in data set [2] and in data set [3] were 316 nM, 50.1 nM and 158 nM, respectively.

Turning to `CCNC(=O)Nc1ccc2c(c1)OCC1C2=NOC1CN1CCN(CC(C)=Cc2ccccc2)CC1` (stereo not shown) [Compound 59], the figures for the IC50 in data set [1], in data set [2] and in data set [3] were 7.94 nM, 10 nM and 1.26 nM, respectively.

For the compound `CC(=Cc1ccc(F)cc1)CN1CCN(CC2ON=C3c4ccc(NC(N)=O)cc4OCC32)CC1` (stereo not shown) [Compound 137], the results for the IC50 in data set [1], in data set [2] and in data set [3] were 6.31 nM, 20 nM and 10 nM, respectively.

Turning to `COc1cc2c(cc1NCCN1CCCC1)OCC1C2=NOC1CN1CCN(CC(C)=Cc2ccc(F)cc2)CC1` (stereo not shown) [Compound 29], the figures for the IC50 in data set [1], in data set [2] and in data set [3] were 15.8 nM, 3.16 nM and 1.58 nM, respectively.

As to `CNCCNc1ccc2c(c1)OCC1C2=NOC1CN1CCN(CC(C)=Cc2ccc(F)cc2)CC1` (stereo not shown) [Compound 20], the IC50 was 31.6 nM in data set [1], 7.94 nM in data set [2] and 3.16 nM in data set [3].

`CCCCCNc1ccc2c(c1)OCC1C2=NOC1CN1CCN(CC(C)=Cc2ccc(F)cc2)CC1` (stereo not shown) [Compound 133]: the IC50 in data set [1], in data set [2] and in data set [3] was 126 nM each time.

For the compound `COc1cc2c(cc1N(C)CCO)OCC1C2=NOC1CN1CCN(CC(C)=Cc2ccccc2)CC1` (stereo not shown) [Compound 32], the IC50 in data set [1] was 3.98 nM; in data set [2], 20 nM; in data set [3], 0.794 nM.

With `CC(=Cc1ccc(F)cc1)CN1CCN(CC2ON=C3c4ccc(NCC5CC5)cc4OCC32)CC1` (stereo not shown) [Compound 130], the IC50 was 126 nM in data set [1], 126 nM in data set [2] and 25.1 nM in data set [3].

Consider `COc1cc2c(cc1NCCN)OCC1C2=NOC1CN1CCN(CC(C)=Cc2ccc(F)cc2)CC1` (stereo not shown) [Compound 97], for which the IC50 in data set [1] is 31.6 nM; in data set [2], 15.8 nM; in data set [3], 6.31 nM.

Take `CC(=Cc1ccc(F)cc1)CN1CCN(CC2ON=C3c4ccc(NCC(C)O)cc4OCC32)CC1` (stereo not shown) [Compound 132]: the IC50 in data set [1] was 25.1 nM; in data set [2], 63.1 nM; in data set [3] it was 31.6 nM.

As to `CCNc1ccc2c(c1)OCC1C2=NOC1CN1CCN(CC(C)=Cc2ccccc2)CC1` (stereo not shown) [Compound 18], the IC50 is 6.31 nM in data set [1], 50.1 nM in data set [2] and 1.26 nM in data set [3].

With `COc1cc2c(cc1NCC1CC1C)OCC1C2=NOC1CN1CCN(CC(C)=Cc2ccc(F)cc2)CC1` (stereo not shown) [Compound 126], the IC50 in data set [1] is 63.1 nM; in data set [2], 126 nM; in data set [3], 126 nM.

With `CC(=Cc1cccc(F)c1)CN1CCN(CC2ON=C3c4ccc(N(C)CCN(C)C)cc4OCC32)CC1` (stereo not shown) [Compound 22], the values for the IC50 in data set [1], in data set [2] and in data set [3] were 1.58 nM, 1.58 nM and 1.26 nM, respectively.
